In PubChem BioAssay (NCI):
Where “and” joins values, the source holds several entries; their conditions need not be identical. Equal entries are not always repeated.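 In this assay, cells in 96-well plates receive the compound at five concentrations for 48 hours. Endpoints are linearly interpolated between the surrounding concentrations. GI50 is the concentration that inhibits growth by half. TGI denotes the concentration required for complete inhibition of growth.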

Legend:
Assay in all cases: growth of human tumour cells (NCI), 48 h
[1] = system: A498 renal
[2] = system: CCRF-CEM leukemia
[3] = system: HOP-92 NSCLC
[4] = system: K-562 leukemia
[5] = system: MOLT-4 leukemia
[6] = system: OVCAR-4 ovarian
[7] = system: SK-MEL-2 melanoma
[8] = system: SNB-19 CNS
[9] = system: SR leukemia
[10] = system: SW-620 colon

Structure (SMILES)	TGI [1]	TGI [2] [µM]	TGI [3]	TGI [4] [µM]	TGI [5]	TGI [6] [µM]	TGI [7]	TGI [8] [µM]	TGI [9]	TGI [10] [µM]	GI50 [1]	GI50 [2]	GI50 [3]	GI50 [4]	GI50 [5]	GI50 [6]	GI50 [7]	GI50 [8]	GI50 [9]	GI50 [10]
Nc1ccccc1C(=O)C(Br)C(Br)c1ccc2c(c1)OCO2 (centres undefined)	60.7 µM	> 100	39.5 µM	> 100	> 100 µM	59.8	35.2 µM	89	> 100 µM	> 100										
COc1cccc(COc2cc(-n3cnc4ccccc43)sc2C(N)=O)c1	> 25 µM	> 25	> 25 µM	> 25	> 25 µM	> 25	> 25 µM	> 25	> 25 µM	> 25	0.92 µM	1.15 µM	> 5.9 µM	> 25 µM	> 14.8 µM	> 25 µM	> 15.4 µM	14.4 µM	6.98 µM	> 11.1 µM
O=S1CSSC1	> 100 µM	46.2	57.4 µM	80.7	43.1 µM	33.9	33.9 µM	> 100	47.2 µM	31.7										
COc1ccc(-c2cnoc2-c2cc(OC)c3c(c2)OCCO3)cc1	0.164 µM	> 100	41.7 µM	> 100	> 100 µM	> 100	16.2 µM	> 100	6.29 µM	> 100	0.0149 µM	0.0379 µM	0.281 µM	< 0.0115 µM	0.0638 µM	14 µM	0.0279 µM	0.0525 µM	0.0226 µM	0.0302 µM
Nc1cc(-c2ccc(Cl)cc2)nn1-c1nnc(/C=C/c2ccco2)c(=O)[nH]1	6.9 µM	> 41	16.7 µM	> 48	> 43 µM	13.4	> 88.3 µM	> 83.3	> 100 µM	> 100	1.78 µM	2.26 µM	2.6 µM	2.98 µM	3.17 µM	2.64 µM	19 µM	5.11 µM	2.53 µM	5 µM
c1cnn2ncc(-c3ccnc(Nc4ccc5c(c4)OCCO5)n3)c2c1	0.128 µM	> 25	0.162 µM	> 25	0.622 µM	> 25	0.121 µM	> 25		0.383	0.0492 µM	0.0879 µM	0.0593 µM	0.285 µM	0.0664 µM	0.269 µM	0.0483 µM	0.0882 µM	0.0466 µM	0.0786 µM
Cc1cccc(C)c1N1C(=O)C(=O)C(c2nc3ccccc3s2)C(=Nc2cccc3c(=O)[nH][nH]c(=O)c23)C1=O (centres undefined)	> 100 µM	> 100	> 100 µM	> 100	> 100 µM	> 100	> 100 µM	> 100	> 100 µM	> 100										
Cc1ccc(-n2nc(C(C)(C)C)cc2NC(=O)NCc2cc(F)ccc2Oc2ccc3c(cnn3CCO)c2)cc1	9.34 µM and 6.97 µM	> 69.7	> 10 µM and 95.2 µM	> 10	> 10 µM and 5.23 µM	> 100	> 10 µM and 13 µM	> 100	> 10 µM and 4.33 µM	> 100	1.02 µM and 1.48 µM	> 10 µM and 3.38 µM	8.06 µM and 5.1 µM	0.00802 µM and 0.0185 µM	9.91 µM and 2.05 µM	> 10 µM and 4.1 µM	2.98 µM and 4.42 µM	> 10 µM and 17.9 µM	> 10 µM and 1.12 µM	> 10 µM and 6.34 µM
CCCCCCC(C)CCCCCCCCCCC(=O)O (centres undefined)	> 100 µM	> 100	> 100 µM	> 100	> 100 µM	> 100	> 100 µM	> 100	> 100 µM	> 100										
CC(C)Oc1ccc(C(=O)Cn2ccnc2)cc1-n1c(CN2CCN(C(=O)COc3ccc(Cl)cc3)CC2)nc2ccccc2c1=O	28.6 µM	> 100	35 µM	81.3	> 71.8 µM	> 64.8	38.5 µM	> 100	36.8 µM	50.9	14.1 µM	11 µM	13.1 µM	5.77 µM	7.55 µM	3.6 µM	17.6 µM	29.6 µM	5.64 µM	13.4 µM
OCc1ccc(N2CCOCC2)cc1Cl	0.926 µM	> 100	> 100 µM	> 100	> 100 µM	> 100	> 100 µM	> 100	> 100 µM	> 100	0.224 µM	> 100 µM	34.6 µM	> 100 µM	> 100 µM	55.6 µM	> 100 µM	> 100 µM	> 100 µM	> 100 µM
CCCCCCCCCCCCCC[n+]1cccc(C(N)=O)c1	29.2 µM	4.47	3.49 µM	6.53	4.26 µM	19.6	4.69 µM	2.4	3.94 µM	6.72	5.57 µM	1.5 µM	0.657 µM	1.88 µM	1.67 µM	3.73 µM	2.13 µM	1.01 µM	1.45 µM	1.98 µM
COc1ccc(C2=C(N3CCc4ccccc43)C(=O)NC2=O)cc1	> 25 µM	> 11.7	19.7 µM	> 25	> 25 µM	> 25	> 25 µM	> 25	> 25 µM	> 25	> 16.6 µM	2.73 µM	0.642 µM	> 17.4 µM	25 µM	> 25 µM	> 25 µM	> 25 µM	13.7 µM	> 25 µM
CCn1c(-c2nonc2N)nc2ccncc21	> 25 µM	> 25	> 25 µM	> 25	> 25 µM	> 25	> 25 µM	> 25	> 25 µM	> 25	> 25 µM	> 25 µM	> 25 µM	> 25 µM	> 25 µM	> 25 µM	> 25 µM	> 25 µM	> 25 µM	> 25 µM
c1ccc2[nH]c(CNc3ccc(C4C[Se]N=N4)cc3)nc2c1 (centres undefined)	> 100 µM	82.5	> 100 µM	> 100	40.5 µM	> 100	> 100 µM	> 100	36 µM	> 100										
COc1ccc(C2Oc3c(c(O)cc4c3[C@H](c3ccc(O)cc3O)[C@H](O)C(c3ccc(O)c(O)c3)O4)C[C@@H]2O)cc1O (some centres undefined)	> 100 µM	> 100	> 100 µM	> 100	> 100 µM	> 100	> 100 µM	> 100	> 100 µM	> 100										
